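Results reflect a 48-hour exposure of cells in 96-well plates to compound at five concentrations. TGI denotes the concentration required for complete inhibition of growth.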

For one experiment, the system named is IGROV1 ovarian. As to the kind of experiment: NCI anticancer screen, dose series, 48 h.
As to `Clc1ccc(C=Nc2ccc(Oc3ccc(Cl)cc3)c(Cl)c2)cc1`, the TGI is > 100 µM.

As to `COC(=O)[C@H](Cc1ccccc1)NC(=O)c1ccc(CNC(=O)/C=C/c2csc(-c3ccccc3)n2)cc1`, the TGI was > 23.2 µM.

With `N#Cc1ccccc1OCCOc1ccccc1C#N`, the TGI was > 100 µM.

On to `CCN(/C=C1/C(=O)C(c2ccccc2)N(c2ccccc2)C1=O)CC` (stereo unspecified), for which the TGI is > 10 µM.

As for `O=[N+]([O-])c1ccc(/C=N/Nc2nc3ccccc3[nH]2)o1`, the TGI was 26.7 µM.

`Cc1cccc2sc(NC(=O)NS(=O)(=O)n3cnc4ccccc43)nc12` registered a TGI of 51.1 µM.

As for `COC(=O)C1CCC(=O)N1CN(C(C)=O)c1cccc(O)c1` (stereo unspecified), the TGI was > 100 µM.

Consider `COc1ccc2nc3c(c(N)c2c1)C1CCC3C1(C)C` (stereo unspecified), for which the TGI was > 100 µM.

With `CCOC(=O)c1c(NC(=O)c2ccccc2)c(C#N)c2n1CCCCC2`, the TGI was > 100 µM.

For `Oc1c(N2CCCCC2)cc(-c2cc(N3CCCCC3)c(O)c3ccccc23)c2ccccc12`, the TGI was > 100 µM.

In the case of `O=c1cc(Nc2cccc(O)c2)[nH]c(=O)[nH]1`, the TGI is > 100 µM.

For the molecule `C[C@H]1CC[C@@]2(OC1)O[C@H]1C[C@H]3[C@@H]4CC[C@@H]5C[C@@H](OC6OC(CO)C(O)C(O)C6OC6OC(CO)C(O)C(O)C6O)CC[C@]5(C)[C@H]4CC[C@]3(C)[C@H]1[C@@H]2C` (stereo partly specified), the TGI amounted to 4.14 µM.

For the molecule `O=C(Nn1c(-c2ccccc2)nc2ccccc2c1=O)c1ccc(Cl)cc1`, the TGI is > 100 µM.

As to `Cc1nc2sc3cccc(Cl)c3n2c(=O)c1N=Nc1ccc(Cl)cc1`, the TGI was > 100 µM.

For the molecule `Cc1cc(N(CCC#N)CCC#N)ccc1/C(N=Nc1ccccc1)=N\NC(=O)c1cc(Cl)ccc1O`, the TGI is > 100 µM.

The molecule `CSC(=O)/C=C1\SS/C(=C\C(=O)SC)S1` returned a TGI of 11.6 µM.

In the case of `Cc1ccc(N=N/C(=N/NC(=O)c2ccccc2)c2ccc(N(CCC#N)CCC#N)cc2C)cc1`, the TGI is > 100 µM.

Consider `CCCCCCCCCCCCCCCCCCNc1ccn(C2OC(COP(=O)(O)OCC3OC(n4ccc(N)nc4=O)C(O)C3O)C(O)C2O)c(=O)n1` (stereo unspecified), for which the TGI was > 100 µM.

In turn, `Cc1ccc(S[C@@](C=O)(NC(=O)OCc2ccccc2)C(F)(F)F)cc1` came in with a TGI of 54.3 µM.

Regarding `CCOc1cnc(C(O)(c2ccccc2)c2ccccc2)o1`, the TGI was > 100 µM.

Consider `COC(CN(C)C(=S)Nc1cccc2ccccc12)OC`, for which the TGI is > 10 µM.

`COc1ccc(CCCCNCc2cccc(CNCCCCc3ccc(OC)cc3)c2)cc1` yielded a TGI of 3.32 µM.

The next experiment has as its system MDA-MB-231 breast. As to the kind of experiment: NCI anticancer screen, dose series, 48 h.
Turning to `Clc1ccc(C=Nc2ccc(Oc3ccc(Cl)cc3)c(Cl)c2)cc1`, the TGI is 47.9 µM.

As for `COC(=O)[C@H](Cc1ccccc1)NC(=O)c1ccc(CNC(=O)/C=C/c2csc(-c3ccccc3)n2)cc1`, the TGI is 57.7 µM.

Regarding `N#Cc1ccccc1OCCOc1ccccc1C#N`, the TGI was > 100 µM.

For the molecule `CCN(/C=C1/C(=O)C(c2ccccc2)N(c2ccccc2)C1=O)CC` (stereo unspecified), the TGI was > 10 µM.

Molecule `O=[N+]([O-])c1ccc(/C=N/Nc2nc3ccccc3[nH]2)o1` came in with a TGI of 70.9 µM.

Regarding `Cc1cccc2sc(NC(=O)NS(=O)(=O)n3cnc4ccccc43)nc12`, the TGI amounted to 93.3 µM.

Consider `COC(=O)C1CCC(=O)N1CN(C(C)=O)c1cccc(O)c1` (stereo unspecified), for which the TGI is > 100 µM.

Turning to `COc1ccc2nc3c(c(N)c2c1)C1CCC3C1(C)C` (stereo unspecified), the TGI amounted to 68.3 µM.

On to `CCOC(=O)c1c(NC(=O)c2ccccc2)c(C#N)c2n1CCCCC2`, for which the TGI is > 100 µM.

With `Oc1c(N2CCCCC2)cc(-c2cc(N3CCCCC3)c(O)c3ccccc23)c2ccccc12`, the TGI was > 100 µM.

For `O=c1cc(Nc2cccc(O)c2)[nH]c(=O)[nH]1`, the TGI is > 100 µM.

In turn, `C[C@H]1CC[C@@]2(OC1)O[C@H]1C[C@H]3[C@@H]4CC[C@@H]5C[C@@H](OC6OC(CO)C(O)C(O)C6OC6OC(CO)C(O)C(O)C6O)CC[C@]5(C)[C@H]4CC[C@]3(C)[C@H]1[C@@H]2C` (stereo partly specified) came in with a TGI of 3.81 µM.

Take `O=C(Nn1c(-c2ccccc2)nc2ccccc2c1=O)c1ccc(Cl)cc1`: the TGI was > 100 µM.

In the case of `Cc1nc2sc3cccc(Cl)c3n2c(=O)c1N=Nc1ccc(Cl)cc1`, the TGI was > 100 µM.

As to `Cc1cc(N(CCC#N)CCC#N)ccc1/C(N=Nc1ccccc1)=N\NC(=O)c1cc(Cl)ccc1O`, the TGI is 83 µM.

Regarding `CSC(=O)/C=C1\SS/C(=C\C(=O)SC)S1`, the TGI amounted to 4.85 µM.

As for `Cc1ccc(N=N/C(=N/NC(=O)c2ccccc2)c2ccc(N(CCC#N)CCC#N)cc2C)cc1`, the TGI was > 100 µM.

For the molecule `CCCCCCCCCCCCCCCCCCNc1ccn(C2OC(COP(=O)(O)OCC3OC(n4ccc(N)nc4=O)C(O)C3O)C(O)C2O)c(=O)n1` (stereo unspecified), the TGI is > 100 µM.

`Cc1ccc(S[C@@](C=O)(NC(=O)OCc2ccccc2)C(F)(F)F)cc1` showed a TGI of 58.7 µM.

Turning to `CCOc1cnc(C(O)(c2ccccc2)c2ccccc2)o1`, the TGI is > 100 µM.

As for `COC(CN(C)C(=S)Nc1cccc2ccccc12)OC`, the TGI is > 10 µM.

`COc1ccc(CCCCNCc2cccc(CNCCCCc3ccc(OC)cc3)c2)cc1` registered a TGI of 3.6 µM.

The subject of the next experiment is NCI-H226 lung. The experiment in a line: NCI anticancer screen, dose series, 48 h.
Take `Clc1ccc(C=Nc2ccc(Oc3ccc(Cl)cc3)c(Cl)c2)cc1`: the TGI was > 100 µM.

Take `COC(=O)[C@H](Cc1ccccc1)NC(=O)c1ccc(CNC(=O)/C=C/c2csc(-c3ccccc3)n2)cc1`: the TGI is > 100 µM.

Regarding `N#Cc1ccccc1OCCOc1ccccc1C#N`, the TGI is > 100 µM.

`CCN(/C=C1/C(=O)C(c2ccccc2)N(c2ccccc2)C1=O)CC` (stereo unspecified): the TGI is > 10 µM.

Consider `O=[N+]([O-])c1ccc(/C=N/Nc2nc3ccccc3[nH]2)o1`, for which the TGI is 55.5 µM.

For `Cc1cccc2sc(NC(=O)NS(=O)(=O)n3cnc4ccccc43)nc12`, the TGI is > 100 µM.

Consider `COC(=O)C1CCC(=O)N1CN(C(C)=O)c1cccc(O)c1` (stereo unspecified), for which the TGI is > 100 µM.

`COc1ccc2nc3c(c(N)c2c1)C1CCC3C1(C)C` (stereo unspecified) returned a TGI of 72 µM.

With `CCOC(=O)c1c(NC(=O)c2ccccc2)c(C#N)c2n1CCCCC2`, the TGI is > 100 µM.

For the molecule `Oc1c(N2CCCCC2)cc(-c2cc(N3CCCCC3)c(O)c3ccccc23)c2ccccc12`, the TGI is > 100 µM.

Take `O=c1cc(Nc2cccc(O)c2)[nH]c(=O)[nH]1`: the TGI was > 100 µM.

For `C[C@H]1CC[C@@]2(OC1)O[C@H]1C[C@H]3[C@@H]4CC[C@@H]5C[C@@H](OC6OC(CO)C(O)C(O)C6OC6OC(CO)C(O)C(O)C6O)CC[C@]5(C)[C@H]4CC[C@]3(C)[C@H]1[C@@H]2C` (stereo partly specified), the TGI was determined as 4.2 µM.

Turning to `O=C(Nn1c(-c2ccccc2)nc2ccccc2c1=O)c1ccc(Cl)cc1`, the TGI was > 100 µM.

Take `Cc1nc2sc3cccc(Cl)c3n2c(=O)c1N=Nc1ccc(Cl)cc1`: the TGI is > 100 µM.

With `Cc1cc(N(CCC#N)CCC#N)ccc1/C(N=Nc1ccccc1)=N\NC(=O)c1cc(Cl)ccc1O`, the TGI was > 100 µM.

Molecule `CSC(=O)/C=C1\SS/C(=C\C(=O)SC)S1` yielded a TGI of 3.41 µM.

As to `Cc1ccc(N=N/C(=N/NC(=O)c2ccccc2)c2ccc(N(CCC#N)CCC#N)cc2C)cc1`, the TGI was > 100 µM.

Take `CCCCCCCCCCCCCCCCCCNc1ccn(C2OC(COP(=O)(O)OCC3OC(n4ccc(N)nc4=O)C(O)C3O)C(O)C2O)c(=O)n1` (stereo unspecified): the TGI was > 100 µM.

Regarding `Cc1ccc(S[C@@](C=O)(NC(=O)OCc2ccccc2)C(F)(F)F)cc1`, the TGI is 40.2 µM.

In the case of `CCOc1cnc(C(O)(c2ccccc2)c2ccccc2)o1`, the TGI was > 100 µM.

In the case of `COC(CN(C)C(=S)Nc1cccc2ccccc12)OC`, the TGI is > 10 µM.

Turning to `COc1ccc(CCCCNCc2cccc(CNCCCCc3ccc(OC)cc3)c2)cc1`, the TGI is 2.33 µM.

(Values after PubChem BioAssay (NCI).)
